Results: patent publication US20230097975A1, “BORTEZOMIB COMPOSITIONS” (MAIA Pharmaceuticals, Inc., priority 2021, published 2023)
Converted amounts (≈) assume the structure as drawn.

Tests used:
[1] = cited from earlier work
[2] = Estimated solubility of bortezomib in select non-aqueous solvents (visual, incremental solvent addition); format: physicochemical
Experimental: The appearance of the solution was recorded.

| SMILES | Solubility in water [1] | Observation ([2]; N-methyl pyrrolidone (NMP)) | Observation (solvent needed to dissolve approx. 25 mg) ([2]; alcohol (ethanol)) | Observation ([2]; benzyl alcohol) | Observation ([2]; dimethyl sulfoxide (DMSO)) | Observation ([2]; glycerol) | Estimated Solubility ([2]; in benzyl alcohol) | Estimated Solubility ([2]; in dimethyl sulfoxide (DMSO)) | Observation ([2]; polyethylene glycol 400) | Observation (solvent needed to dissolve approx. 25 mg) ([2]; propylene glycol) |
| --- | --- | --- | --- | --- | --- | --- | --- | --- | --- | --- |
| OCc1ccccc1 [benzyl alcohol] | 35 mg/mL (≈ 324 mM) |  |  |  |  |  |  |  |  |  |
| CC(C)C[C@H](NC(=O)[C@H](Cc1ccccc1)NC(=O)c1cnccn1)B(O)O [Bortezomib, [(1R)-3-methyl-1-[[(2S)-1-oxo-3-phenyl-2-[(pyrazinylcarbonyl)amino]propyl]amino]butyl] boronic acid] |  | Completely dissolved after 1 mL | Approximately 5.5 mL of solvent needed | Completely dissolved after 0.5 mL | Completely dissolved after 0.5 mL | No significant dissolution observed up to 10 mL | > 50 mg/mL | > 50 mg/mL | No significant dissolution observed up to 10 mL | Approximately 7 mL of solvent needed |
